Test results from patent US20240115545A1, “PHARMACEUTICAL COMPOSITION CONTAINING B-LAPACHONE AS ACTIVE INGREDIENT FOR PREVENTION OR TREATMENT OF CHOLESTATIC LIVER DISEASE” (CUROME BIOSCIENCES CO., LTD., priority 2020, published 2024).

Key:
[1] = test system: DDC-induced cholestatic liver disease mice; assay: Blood indexes (ALT, AST, ALP, bilirubin), DDC and β-lapachone given together for 7 days (Example 3.1); type: in vivo
Experimental: DDC-induced cholestatic liver disease mouse animal models were prepared according to the method of Elisa Pose et al. by using 8-week-old C57BL/6 male mice (Samtako, Korea). Briefly, cholestatic liver disease was induced by feeding a standard rodent diet supplemented with 0.1% (w/w) DDC for 7 or 14 days. The 12-hour light and dark cycle was maintained and animals were allowed to free access to water. The standard rodent diet included medium wheat, wheat, corn, and corn gluten flour, and soybean oil (14% protein). All animal related procedures were reviewed and approved by the Institutional Animal Care and Use Committee of Korea Research Institute of Bioscience and Biotechnology (KRIBB), KRIBB-AEC-20165).
To investigate the effect of β-lapachone (BL) on the occurrence of cholestatic liver disease, both […] and β-lapachone were administered to mice to characterize animal models.
(§1) After 8-week-old C57BL/6 male mice (Samtako, Korea) were divided into each group (=6), the mice were fed a diet with normal (vehicle), control (DDC), DDC+β-lapachone 20 mg/kg, DDC+β-lapachone 40 mg/kg, DDC+β-lapachone 80 mg/kg, DDC+β-lapachone 100 mg/kg, and positive control DDC+ursodeoxycholic acid 100 mg/kg, and DDC+obeticholic acid 30 mg/kg (total 7 days). After 7 days of treatment, the mice were sacrificed and then the blood was collected from the heart. Thereafter, the levels of alanine aminotransferase (ALT), aspartate aminotransferase (AST), alkaline phosphatase (ALP), and bilirubin, which are blood indexes, were analyzed, and shown in FIG. 4.

[2] = test system: DDC-induced cholestatic liver disease mice; assay: Treatment effect on blood bilirubin and ALP in cholestatic liver disease-induced mice (Example 4); type: in vivo
Experimental: The treatment effect of β-lapachone in cholestatic liver disease-induced mouse animals were investigated. After 8-week-old C57BL/6 male mice (Samtako, Korea) were divided into each group (=6), each group excluding a control group was fed a diet containing 0.1% DDC for 3 days. Thereafter, the mice were fed a diet with DDC control (vehicle), DDC+β-lapachone 20 mg/kg, DDC+β-lapachone 40 mg/kg, DDC+β-lapachone 80 mg/kg, and positive control DDC+obeticholic acid 30 mg/kg for 4 days (total 7 days). After 7 days of feeding, the mice were sacrificed and then the blood was collected from the heart.

macrophage line Raw264.7 = assay: IL-1β and TNF-α release (ELISA) from LPS and ATP treated Raw264.7 macrophages; type: cell-based; conditions: Raw264.7, LPS 100 ng/ml, 0.2, 0.5, 1, 2 μM β-lapachone 24 hours, ATP 2.5 mM 30 minutes
Experimental: The macrophage line Raw264.7 (ATCC TIB-71, Manassas, VA, USA) was subcultured in DMEM supplemented with 10% FBS and 1% penicillin/streptomycin.
For inflammation induction, RAW264.7 cells were suspended in DMEM containing 2% FBS, inoculated in a 12-well plate to a cell number of 4×10^5/ml, and incubated in 5% CO2 incubator at 37° C. for 24 hours. With replacement with fresh media, the cells were treated with appropriate concentrations of a corresponding substance, LPS (100 ng/ml), and 0.2, 0.5, 1, and 2 μM β-lapachone, cultured for 24 hours, treated with ATP (2.5 mM), and then cultured for additional 30 minutes, and the supernatant was collected. The release of cytokines (IL-1β and TNF-α) of RaW264.7 macrophages was quantified using each cell-free supernatant-ELISA set (Invitrogen, Billerica, MA, USA) by Invitrogen according to the manufacture's instruction, and is shown in FIG. 14.

[3] = test system: LX-2 hepatic stellate cell line; assay: Fibronectin and α-SMA protein expression in TGF-β1-treated LX-2 hepatic stellate cells (immunoblotting); type: cell-based; conditions: LX-2 cells, 1 ng/ml TGF-β1 + 0.5 or 1 μM β-lapachone, 24 hours
Experimental: Considering that inflammation and fibrosis of bile ducts cause cirrhosis in cholestatic liver disease, experiments were performed on the LX-2 hepatic stellate cell line model by using the method of Takaaki Higashi et al. (2017). The LX-2 cell line was subcultured in DMEM containing 10% FBS, 2 mM glutamine, 100 U penicillin, and 0.1 mg/ml streptomycin. The LX-2 cell line was added into a 6-well plate at a density of 16×10^4 cells/well, and cultured in DMEM containing 1 ng/ml TGF-β1, 1 ng/ml TGF-β1+0.5 μM β-lapachone or 1 ng/ml TGF-β1+1 μM β-lapachone for 24 hours. Thereafter, the protein expression levels of the fibrosis-related genes fibronectin and α-SMA of the obtained cells were measured by protein immunoblotting according to a conventional method known in the art.

[4] = test system: DSS-induced inflammatory bowel disease mice; assay: Colon length in DSS-induced inflammatory bowel disease mice (Example 6.2); type: in vivo; conditions: DSS + β-lapachone 80 mg/kg
Experimental: After 8-week-old C57BL/6 female mice (Samtako, Korea) were divided into each group (=10), each experimental group was fed a standard rodent diet supplemented with 3% (w/w) DSS in drinking water for the first 5 days to induce acute colitis and orally administered control (vehicle), β-lapachone 40 mg/kg, and β-lapachone 80 mg/kg for 14 days.
By the same method as in Example 6.1, experimental groups were divided into a DSS untreated group (Control), a DSS treated group, and a DSS+β-lapachone 80 mg/kg treated group, respectively, and treated. After the end of the experiment, the mice were sacrificed to remove the colon, and the accurate colon length was measured using a Vernier caliper, and is shown FIGS. 11A and 11B. In addition, the mRNA levels of genes of interleukin-1beta (IL-1β), interleukin-6 (IL-6), interleukin-18 (IL-18), interferon-γ (INF-γ), tumor necrosis factor-α (TNF-α), tumor necrosis factor-β (TNF-β), and monocyte chemoattractant protein-1 (MCP-1), which were inflammatory cytokine factors in the colon tissue, were analyzed by a real-time polymerase chain reaction through a conventional experiment procedure, and are shown in FIG. 12.

[5] = test system: inflammation-related genes; assay: mRNA levels of inflammatory cytokine genes in liver tissue (Example 3.3); type: in vivo, mice; conditions: β-lapachone with DDC in diet, 7 days
Experimental: as §1
In the cholestatic liver disease, the inflammation in the portal vein and damage to the bile ducts in the liver occur chronically, resulting in cholestasis and liver fibrosis. The mRNA levels of inflammatory cytokine genes in the liver tissue of the cholestatic liver disease mouse animal models obtained by the same method as in Example 3.1 were measured, and shown in FIG. 6.

[6] = 20, 40, 80, 100 mg/kg in diet with DDC, depending on the concentration
[7] = 0.1% DDC 3 days, then DDC + 20, 40, 80 mg/kg in diet for 4 days, depending on the concentration

SMILES: CC1(C)CCC2=C(O1)c1ccccc1C(=O)C2=O [β-lapachone]
- ALP in the blood increased by DDC [1, 6]: inhibited
- ALT in the blood increased by DDC [1, 6]: inhibited
- AST in the blood increased by DDC [1, 6]: inhibited
- bilirubin in the blood increased by DDC [1, 6]: inhibited
- effect on blood indexes compared with positive controls ([1]; vs ursodeoxycholic acid 100 mg/kg and obeticholic acid 30 mg/kg): excellent effects compared with ursodeoxycholic acid (UDCA) and obeticholic acid (OCA)
- ALP in the blood increased by DDC [2, 7]: inhibited
- bilirubin in the blood increased by DDC [2, 7]: inhibited
- effect on bilirubin and ALP compared with positive controls ([2]; treatment after 3 days DDC, positive control obeticholic acid 30 mg/kg): excellent effect compared with ursodeoxycholic acid (UDCA) and obeticholic acid (OCA)
- expression level of IL-1β protein increased by LPS and ATP (macrophage line Raw264.7): reduced depending on the concentration
- expression level of TNF-α protein increased by LPS and ATP (macrophage line Raw264.7): reduced depending on the concentration
- protein expression level of fibronectin increased by TGF-β1 [3]: reduced depending on the concentration
- protein expression level of α-SMA increased by TGF-β1 [3]: reduced depending on the concentration
- colon length shortened by DSS [4]: recovered
- transcriptional level of IL-1β in liver [5]: inhibited
- transcriptional level of TNFα in liver [5]: inhibited
